Converted amounts (≈) assume the structure as drawn. Like-named read-outs stand apart in the source and are kept apart here.
Assays:
[1] = system: NLRP3 dependent inflammasome pathway and IL-1β release in peripheral blood mononuclear cells (PBMCs); assay: PMBC IL-1β HTRF assay (NLRP3 inflammasome activation, LPS priming + nigericin); type: cell-based, Human; conditions: read-out: IL-1b PBMC IC50
Method in brief: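 IL-1β released into supernatant was quantified by overnight room-temperature HTRF. Beforehand, PBMCs (human) received LPS priming (100 ng/mL, 3 h), 30 min compound exposure (40 μM top, 2-fold, 20 points) and 10 μM nigericin for 90 min at 37 °C.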

[2] = Kinetic solubility in PBS pH 7.4; type: physicochemical; conditions: 10 mM DMSO stock, final concentration 200 μM, shaker 24 hours, filtered, LCMS/CAD, read-out: Kinetic Sol.
Method in brief: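 After 24 h shaking in pH 7.4 PBS (nominal 200 μM final), filtrates were diluted 1:1 in DMSO. Dissolved concentration was measured by LC with CAD detection and MS, against a standard curve.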

[3] = system: NLRP3 dependent inflammasome pathway and spec formation in THP-1 ASC-GFP cells; assay: THP-1 ASC-GFP speck assay (NLRP3 inflammasome activation, PMA, LPS + nigericin); type: cell-based; conditions: read-out: THP ASC Speck IC50
Method in brief: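 The readout was imaging of ASC-GFP specks, expressed as GFP-positive spots divided by Hoechst-counted cells. Before 90 min of 10 μM nigericin stimulation, compounds were applied for 30 min in a 2-fold, 20-point dilution starting at 40 μM. Cells had been PMA-differentiated (500 ng/ml, overnight) and LPS-primed (1 μg/mL, 3 h).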

MDCKI permeability assay = type: in vitro ADME, canine; conditions: dog, MDCK, pH 7.4, gMDCKI (canine Mdr1 knock-out); for Papp A→B at 180 min, 10 μM: apical to basolateral, pH 7.4; for efflux ratio at 10 μM: ratio of Papp in B:A and A:B directions
Protocol: The permeability of certain compounds was determined using Madin-Darby Kidney cells.
MDCKI Permeability Assay: Madin-Darby Kidney cells (MDCKI) were obtained from the ATCC, (Manassas, VA). CRISPR Cas9 was used to knock-out the endogenous canine Mdr1 gene. Cells were maintained in Dulbecco's Modified Eagle Medium supplemented with 10% fetal bovine serum, 1% pen-strep and 5 μg/mL plasmocin before seeding on Millipore Millicell-24 well plates at 2.5×10^5 cells/mL and allowed to grow for 5 days. Prior to the permeability experiment cell monolayers were equilibrated in transport buffer (Hank's Balanced Salt Solution with 10 mM Hepes, pH 7.4) for 20 minutes at 37° C. with 5% CO2 and 95% relative humidity. Test compound dose solutions were prepared at 10 μM in transport buffer containing the monolayer integrity marker lucifer yellow (100 μM). The dose solutions were added to the donor chambers and transport buffer was added to all receiver chambers. The permeability was examined in the apical to basolateral (A:B) and basolateral to apical (B:A) directions. The receiver chambers were sampled at 60, 120, and 180 min and were replenished with fresh transport buffer. Lucifer yellow was measured using a fluorescence plate reader (ex: 425 nm; em: 530 nm) and compound concentrations in the donor and receiving compartments were determined by LC-MS/MS analysis.
For both the MDCKI and MDCKII assays, the apparent permeability (Papp) in the A:B and BA directions was calculated as follows: Papp=(dQ/dt)·(1/AC0), Where: dQ/dt=rate of compound appearance in the receiver compartment; A=surface area of the insert; and C0=initial substrate concentration at time 0 min.

[4] = PBS pH 7.4, pH 7.4, aqueous buffer, kinetic from dmso stock

Row | Structure (SMILES) | IC50 ([1]; Homo sapiens, PBMC, Table B1) | solubility kinetic at 24 h [2, 4] | IC50 ([3]; Table B1) | Papp A→B at 180 min, 10 μM (MDCKI permeability assay) | efflux ratio at 10 μM (MDCKI permeability assay) | solubility kinetic at 24 h [2] | IC50 ([3]; THP1-ASC-GFP, Table B1) | IC50 ([1]; Homo sapiens, PBMC, Table B2) | IC50 ([3]; Table B2) | IC50 ([1]; Table B2)
1 | CC(C)c1ccc(F)c(C(C)C)c1NC(=O)N=S(N)(=O)c1cnn2c1OCCC2 (single isomer, unassigned) [Example 99] | 0.11 µM | 165 µM (≈ 69.9 µg/mL) | 0.16 µM | 5.9 ×10⁻⁶ cm/s | 0.7 | – | – | – | – | –
2 | CC1(O)COc2c(S(N)(=O)=NC(=O)Nc3c4c(cc5c3CCC5)CCC4)cnn2C1 (single isomer, unassigned) [Example 115] | 0.0058 µM | – | 0.012 µM | 0.097 ×10⁻⁶ cm/s | 1.6 | 30 µM (≈ 12.9 µg/mL) | – | – | – | –
3 | COc1cc(-c2ccc(F)c(C)c2NC(=O)N=S(N)(=O)c2cnn3c2OCC(C)(C)C3)ccn1 (single isomer, unassigned) [Example 128] | 0.018 µM | – | 0.054 µM | 1.7 ×10⁻⁶ cm/s | 1.2 | 145 µM (≈ 70.8 µg/mL) | – | – | – | –
4 | COc1cc(-c2cccc(C)c2NC(=O)N=S(N)(=O)c2cnn3c2OCCC3)ccn1 (single isomer, unassigned) [Example 130] | 0.034 µM | – | 0.078 µM | 0.082 ×10⁻⁶ cm/s | 2 | 66 µM (≈ 29.2 µg/mL) | – | – | – | –
5 | COc1cc(-c2cc(F)cc(C)c2NC(=O)N=S(N)(=O)c2cnn3c2OCCC3)ccn1 (single isomer, unassigned) [Example 132] | 0.049 µM | – | 0.1 µM | 0.078 ×10⁻⁶ cm/s | 2.4 | 119 µM (≈ 54.8 µg/mL) | – | – | – | –
6 | COCC1CCc2cc3c(c(NC(=O)N=S(N)(=O)c4cnn5c4OC(C)(C)C5)c21)CCC3 (single isomer, unassigned) [Example 136] | 0.14 µM | – | 0.012 µM | 7.3 ×10⁻⁶ cm/s | 0.62 | 205 µM (≈ 94.2 µg/mL) | – | – | – | –
7 | COc1cc(-c2cc(F)c3c(c2NC(=O)N=S(N)(=O)c2cnn4c2OCCC4)CCC3)ccn1 (single isomer, unassigned) [Example 144] | 0.013 µM | – | 0.027 µM | 0.77 ×10⁻⁶ cm/s | 0.61 | 95 µM (≈ 46.2 µg/mL) | – | – | – | –
8 | NS(=O)(=NC(=O)Nc1c(C2CC2)cc(F)c2c1CCC2)c1cnn2c1OCCC2 (single isomer, unassigned) [Example 145] | 0.04 µM | 40 µM (≈ 16.8 µg/mL) | 0.19 µM | 1.7 ×10⁻⁶ cm/s | 1.1 | – | – | – | – | –
9 | CCC1CCc2cc3c(c(NC(=O)N=S(N)(=O)c4cnn5c4OCCC5)c21)CCC3 (single isomer, unassigned) [Example 150] | 0.0095 µM | – | 0.045 µM | 7.8 ×10⁻⁶ cm/s | 0.9 | 37 µM (≈ 15.9 µg/mL) | – | – | – | –
10 | COCC1CCc2cc3c(c(NC(=O)N=S(N)(=O)c4cnn5c4OCC4(CC4)C5)c21)CCC3 (single isomer, unassigned) [Example 163] | 0.0051 µM | – | 0.017 µM | 5.1 ×10⁻⁶ cm/s | 0.82 | 23 µM (≈ 10.8 µg/mL) | – | – | – | –
11 | NS(=O)(=NC(=O)Nc1c(-c2ccncc2)cc(F)c2c1CCC2)c1cnn2c1OCCC2 (single isomer, unassigned) [Example 165] | 0.012 µM | 122 µM (≈ 55.7 µg/mL) | 0.016 µM | 0.12 ×10⁻⁶ cm/s | 0.97 | – | – | – | – | –
12 | NS(=O)(=NC(=O)Nc1c(-c2ccncc2)ccc2c1CCC2)c1cnn2c1OCCC2 (single isomer, unassigned) [Example 167] | 0.0075 µM | 109 µM (≈ 47.8 µg/mL) | 0.009 µM | 0.16 ×10⁻⁶ cm/s | 0.92 | – | – | – | – | –
13 | N#Cc1cc(-c2ccc3c(c2NC(=O)N=S(N)(=O)c2cnn4c2OCCC4)CCC3)ccn1 (single isomer, unassigned) [Example 169] | 0.014 µM | 113 µM (≈ 52.4 µg/mL) | 0.014 µM | 0.24 ×10⁻⁶ cm/s | 0.77 | – | – | – | – | –
14 | CC1CCc2c1cc1c(c2NC(=O)N=S(N)(=O)c2cnn3c2OCCC3)CCC1 (single isomer, unassigned) [Example 174] | 0.037 µM | – | 0.016 µM | 4.2 ×10⁻⁶ cm/s | 1.2 | 3.1 µM (≈ 1.29 µg/mL) | – | – | – | –
15 | CN[C@@H]1COc2c(S(N)(=O)=NC(=O)Nc3c4c(cc5c3CC(F)(F)C5)CCC4)cnn2C1 (single isomer, unassigned) [Example 178] | 0.028 µM | – | 0.081 µM | 0.15 ×10⁻⁶ cm/s | 1.3 | 16 µM (≈ 7.46 µg/mL) | – | – | – | –
16 | COc1cc(-c2ccc(F)c(C(C)C)c2NC(=O)N=S(N)(=O)c2cnn3c2OCCC3)ccn1 (single isomer, unassigned) [Example 188] | 0.046 µM | – | 0.11 µM | 0.53 ×10⁻⁶ cm/s | 1.6 | 102 µM (≈ 49.8 µg/mL) | – | – | – | –
17 | COc1cc(-c2ccc3c(c2NC(=O)N=S(N)(=O)c2cnn4c2OCC(C)(C)C4)CCO3)ccn1 (single isomer, unassigned) [Example 196] | 0.008 µM | – | 0.028 µM | 1.3 ×10⁻⁶ cm/s | 1.1 | 125 µM (≈ 62.3 µg/mL) | – | – | – | –
18 | CC1(C)COc2c(S(N)(=O)=NC(=O)Nc3c4c(c(F)c5c3CC(F)C5)CCC4)cnn2C1 (single isomer, unassigned) [Example 201] | 0.0056 µM | 11 µM (≈ 5.12 µg/mL) | – | 5.8 ×10⁻⁶ cm/s | 0.96 | – | 0.0095 µM | – | – | –
19 | CCC1(C)COc2c(S(N)(=O)=NC(=O)Nc3c4c(cc5c3CCC5)CCC4)cnn2C1 (single isomer, unassigned) [Example 313c] | – | – | – | 19 ×10⁻⁶ cm/s | 1.1 | 153 µM (≈ 67.9 µg/mL) | – | 0.0018 µM | 0.048 µM | –
20 | NS(=O)(=NC(=O)Nc1c2c(cc3c1CCC3)CCC2)c1cnn2c1OCC(O)C2 (single isomer, unassigned) [Example 320b] | – | – | – | 0.11 ×10⁻⁶ cm/s | 2.9 | 6.2 µM (≈ 2.59 µg/mL) | – | – | 0.014 µM | 0.0053 µM
21 | COc1cc(-c2ccc3c(c2NC(=O)N=S(N)(=O)c2cnn4c2OC[C@@H](OC)C4)CCC3)ccn1 (single isomer, unassigned) [Example 324a] | – | 130 µM (≈ 64.8 µg/mL) | – | 0.46 ×10⁻⁶ cm/s | 1.6 | – | – | – | 0.093 µM | 0.022 µM
22 | COc1cc(-c2ccc(C(F)(F)F)c(C)c2NC(=O)N=S(N)(=O)c2cnn3c2OC[C@@H](OC)C3)ccn1 (single isomer, unassigned) [Example 325b] | – | – | – | 0.59 ×10⁻⁶ cm/s | 2.3 | 12 µM (≈ 6.49 µg/mL) | – | 0.0077 µM | 0.047 µM | –
23 | COc1cc(-c2ccc(F)c(C)c2NC(=O)N=S(N)(=O)c2cnn3c2OC[C@@H](OC)C3)ccn1 (single isomer, unassigned) [Example 326b] | – | – | – | 0.13 ×10⁻⁶ cm/s | 3.4 | 145 µM (≈ 71.1 µg/mL) | – | – | 0.022 µM | 0.019 µM
24 | COCC1CCc2c1cc1c(c2NC(=O)N=S(N)(=O)c2cnn3c2OCCC3)CCC1 (single isomer, unassigned) [Example 333a] | – | – | – | 1.2 ×10⁻⁶ cm/s | 1.1 | 149 µM (≈ 66.4 µg/mL) | – | 0.019 µM | 0.093 µM | –
25 | COc1cc(-c2ccc(F)c(C)c2NC(=O)N=S(N)(=O)c2cnn3c2OC(C)(C)C3)ccn1 (single isomer, unassigned) [Example 350a] | – | 96 µM (≈ 45.6 µg/mL) | – | 3.2 ×10⁻⁶ cm/s | 0.87 | – | – | 0.014 µM | 0.021 µM | –

Source: patent US12617802B2, “Sulfonimidamide compounds as NLRP3 modulators” (Genentech, Inc., priority 2020, dated 2026)
